Key:
Assay type in all cases: in vivo, human
[1] = test system: CRP; assay: CRP value by latex agglutination assay in a patient given Pimobendan orally
Procedure: (§1) 2-(4-Methoxyphenyl)-5-(5-methyl-3-oxo-4,5-dihydro-2H-6-pyridazinyl)-benzimidazole (hereunder referred to as imobendan was orally administered to a patient who suffered from heart failure while malignant articular rheumatism set in as a complication and the CRP value thereof was determined with the elapse of time.
The CRP value was determined by the latex agglutination assay disclosed in Senju Osamu, et al.: J. Clin. Lab. Immunol. 19:99-103(1986) according to a method identical to that disclosed in Claus David R. et al.: J. Lab. Clin. Med. 87:120-128(1976).
When Pimobendan was administered to the patient in a dose of 1.25 mg, the CRP value thereof was reduced and therefore, the compound was administered in a dose of 1.25 mg twice a day on and after the next day (this was defined to be the day at which the administration was initiated).
(§2) Thus, the administration of Pimobendan was discontinued. Thereafter, Pimobendan was again administered to the patient in a dose of 1.25 mg twice a day to confirm the effect of the drug to reduce the CRP value.

[2] = test system: heart function; assay: Echocardiography of the patient; details: patient with heart failure, 1.25 mg twice a day
[3] = test system: inflammation due to the malignant articular rheumatism; assay: Inflammation due to malignant articular rheumatism in the patient; details: re-administration, 1.25 mg twice a day
Procedure: as §1, §2

COc1ccc(-c2nc3ccc(C4=NNC(=O)CC4C)cc3[nH]2)cc1 (centres unmarked) [Pimobendan, 2-(4-Methoxyphenyl)-5-(5-methyl-3-oxo-4,5-dihydro-2H-6-pyridazinyl)-benzimidazole]
CRP value (change) ([1]; after first dose of 1.25 mg, value prior to administration 4.7 mg/dl): reduced
CRP Value ([1]; day 89, in parentheses: day at which Pimobendan was not administered (discontinued)): (5.0) mg/dl
CRP Value ([1]; day 90, in parentheses: day at which Pimobendan was not administered (discontinued)): (2.7) mg/dl
CRP Value ([1]; day 97, in parentheses: day at which Pimobendan was not administered (discontinued)): (2.4) mg/dl
CRP Value ([1]; day 105, in parentheses: day at which Pimobendan was not administered (discontinued)): (3.6) mg/dl
CRP Value ([1]; day 113, in parentheses: day at which Pimobendan was not administered (discontinued)): (3.2) mg/dl
CRP Value ([1]; day 119, in parentheses: day at which Pimobendan was not administered (discontinued)): (2.9) mg/dl
CRP Value ([1]; patient, again 1.25 mg twice a day, day 126 after initiating the administration): 3.0 mg/dL
CRP Value ([1]; patient, again 1.25 mg twice a day, day 127 after initiating the administration): 4.3 mg/dL
CRP Value ([1]; patient, again 1.25 mg twice a day, day 130 after initiating the administration): 3.8 mg/dL
CRP Value ([1]; patient, again 1.25 mg twice a day, day 132 after initiating the administration): 2.1 mg/dL
CRP Value ([1]; patient, again 1.25 mg twice a day, day 137 after initiating the administration): 1.3 mg/dL
CRP Value ([1]; patient, oral 1.25 mg twice a day, day 12 after initiating the administration): 1.7 mg/dL
CRP Value ([1]; patient, oral 1.25 mg twice a day, day 28 after initiating the administration): 6.1 mg/dL
CRP Value ([1]; patient, oral 1.25 mg twice a day, day 61 after initiating the administration): 3.0 mg/dL
CRP Value ([1]; patient, oral 1.25 mg twice a day, day 71 after initiating the administration): 3.3 mg/dL
CRP value (change) ([1]; re-administration, 1.25 mg twice a day after discontinuation): again reduced
CRP value (overall conclusion from Table 1) ([1]; whole test period): reduce the CRP value to a clinically satisfactory level
heart function [2]: improved
inflammation due to the malignant articular rheumatism [3]: recovered

Reference: patent US6486160B1, “Pharmaceutical composition for modulating immunity” (Toray Industries, Inc., priority 2001, dated 2002)
